Measurements taken from patent publication US20080085859A1, “Drug Promoting Ceramide Transport, Base Sequence for Producing the Drug, Method of Measuring Activity of Promoting Ceramide Release and Method of Measuring Activity of Promoting Intermembrane Ceramide Transfer” (JAPAN SCIENCE AND TECHNOLOGY AGENCY, priority 2003, published 2008).

B1: FL-hCERT: hCERT with FL (FLAG) sequence added to amino end (protein, UniProt Q9Y5P4 1-624, looked up)
Ceramide transfer protein: MSDNQSWNSSGSEEDPETESGPPVERCGVLSKWTNYIHGWQDRWVVLKNNALSYYKSEDETEYGCRGSICLSKAVITPHDFDECRFDISVNDSVWYLRAQDPDHRQQWIDAIEQHKTESGYGSESSLRRHGSMVSLVSGASGYSATSTSSFKKGHSLREKLAEMETFRDILCRQVDTLQKYFDACADAVSKDELQRDKVVEDDEDDFPTTRSDGDFLHSTNGNKEKLFPHVTPKGINGIDFKGEAITFKATTAGILATLSHCIELMVKREDSWQKRLDKETEKKRRTEEAYKNAMTELKKKSHFGGPDYEEGPNSLINEEEFFDAVEAALDRQDKIEEQSQSEKVRLHWPTSLPSGDAFSSVGTHRFVQKPYSRSSSMSSIDLVSASDDVHRFSSQVEEMVQNHMTYSLQDVGGDANWQLVVEEGEMKVYRREVEENGIVLDPLKATHAVKGVTGHEVCNYFWNVDVRNDWETTIENFHVVETLADNAIIIYQTHKRVWPASQRDVLYLSVIRKIPALTENDPETWIVCNFSVDHDSAPLNNRCVRAKINVAMICQTLVSPPEGNQEISRDNILCKITYVANVNPGGWAPASVLRAVAKREYPKFLKRFTSYVQEKTAGKPILF
modifications: N-terminal FLAG tag

Tests used:
Type in all cases: cell-based, Chinese hamster
[1] = tested on: CHO-K1 cell; experiment: influence of ceramide transport inhibitor on SM synthesis, [14C] serine labeling; settings: 1 μM, FIG. 8
Method: (§1) CHO-K1 cell, LY-A2 cell, and LY-A2/hCERT cell were inoculated at the cell density of 1.0×10^6 per culture dish having the 60-mm diameter, and cultured at 33° C. overnight. Subsequently, it was exchanged with […] of Nutridoma medium, after [^14C] serine (0.75 μCi) or [^14C] choline (1.0 μCi) have been added, in the case where [^14C] serine is added, it was cultured for 2 hours, and in the case where [^14C] choline is added, it was cultured at 33° C. for 5 hours. However, in the case where the influence on (1R, 3R) HPA-12 is analyzed, after it was pretreated at […] for 15 minutes in 1.5 mL of Nutridoma medium to which 1 μM of (1R,3R) HPA-12 has been added (in control experiment, dimethylsulfoxide used for dissolving a drug was added at the concentration corresponding to 0.01% of the final concentration), [^14C] serine was added, and cultured at 33° C. for 2 hours. After the cell was washed twice in 2 mL of cooled PBS, dissolved in 900 μL of sodium dodecyl sulfate (SDS), then, 800 μL and 20 μL of dissolved matter were used for determining lipid extraction and protein concentration. For the purpose of analyzing lipid labeled with [^14C] serine, the lipid was separated by TLC by making acetic methyl/n-propanol/chloroform/methanol/0.25% KCl (25:25:25 10:9, volume ratio) development solvent. The radioactive lipid separated on the plate was detected and analyzed by an image analyzer.
(§2) The present inventors have already found a selective inhibitor with respect to ATP dependent ceramide transport pathway (J. Biol. Chem. 276,43994-44002, 2001). For the purpose of examining whether or not ceramide transport pathway recovered by introducing hCERT is a transport pathway which is sensitive to (1R,3R) HPA-12, the analysis of the influence of (1R, 3R) HPA-12 treatment with respect to SM biosynthesis was performed by performing a lipid metabolism labeling experiment using radioactive serine.

[2] = tested on: LY-A2 cell; experiment: as above; settings: FIG. 8
Method: as §1, §2

[3] = tested on: LY-A2 cell; experiment: MCD resistance by counting the number of survived cells; settings: LY-A2 cell infected with expressing retrovirus, FIGS. 10(A), 12(A)
Method: The method of selecting function recovery strain used herein was performed on the basis of the knowledge that a cell whose SM content has been reduced becomes highly sensitive to cholesterol drawing reagent/methylcyclodextrin (MCD), and the cell whose SM content has been recovered recovers the resistance to MCD. As described in the foregoing paragraph, after the infected cell that has been seeded and cultured at 33° C. overnight was washed twice in 10 mL of serum-free F12 medium, it has been at 37° C. for one hour in 25 mL. After the culture dish was washed three times with 12 mL of PBS, 25 mL of F12/NBS was added and cultured at 33° C. for 7 to 10 days. […]
It has been validated whether or not CERT protein and CERTL which is a large separate splicing type product having 26 amino acid residue complements the deletion of LY-A cell. […] The MCD resistance of the obtained (LY-A2+FL-hCERT) cell and ((LY-A2+FL-hCERTL) cell were measured by counting the number of survived cells in accordance with the method described in <Method of selecting MCD resistance recovery strain>. Moreover, the MCD resistance of (LY-A2+empty vector) cell, CHO-K1 cell and LY-A2 cell obtained by infecting LY-A2 cell using pLIB vector in which gene has not been inserted were also similarly measured. The results are indicated in FIG. 10(A). […]

Molecule | inhibition of SM synthesis [1] | inhibition of SM synthesis ([2]; 1 μM, cell printed as LY-A2 cell (first sentence of b175)) | additional inhibition of SM biosynthesis ([2]; LY-A2 cell where HPA-12-sensitive pathway is impaired) | MCD resistance [3]
CCCCCCCCCCCC(=O)N[C@@H](CO)C[C@@H](O)c1ccccc1 [(1R,3R) HPA-12, (1R,3R)N-(3-hydroxy-1-hydroxymethyl-3-phenyprol) dodecane amide] | significantly inhibited | significantly inhibited | another additional inhibition was not seen | 
B1 |  |  |  | significantly acquired the MCD resistance
